The assay has as its system Aedes aegypti eggs. Description: Prevention of mosquito egg hatching (Example No. 5). The class given is in vivo. Particulars: 0.03% nootkatone/1% ethanol, 24 hours. On the procedure: Mosquito eggs from Aedes aegypti and Anopheles quadrimaculatus mosquitoes were obtained from a commercial source.
In a second experiment, Aedes aegypti eggs were divided into cohorts of ˜100 eggs. Each cohort was placed inside a clean 9 cm Petri dish after receiving mock treatment or a true treatment with nootkatone (see “Treatments”), after which the Petri dish was covered with its lid and held at 30-35° C. to allow hatching. Hatching was scored as the number of live larvae after 24 hours. Four cohorts were tested per treatment.
An aliquot of 0.2 mL of a 3% solution (w/v) of nootkatone in 100% ethanol was added to 20 mL of sterile MilliQ water in treatment Petri dishes to obtain a final concentration of 0.03% nootkatone/1% ethanol. Control beakers received 0.2 mL of 100% ethanol, to obtain a final concentration of 1% ethanol.
The rate of egg hatching was calculated for each treatment and control egg cohort, and the results of at least 4 cohorts were averaged, and used to calculate the relative hatch rate for treatments versus controls (see FIG. 11). […] Therefore, nootkatone treatment of mosquito breeding sites will effectively reduce mosquito populations by preventing hatching and killing hatched larvae.

Regarding `C=C(C)[C@@H]1CCC2=CC(=O)C[C@@H](C)[C@]2(C)C1` [Nootkatone, nootkatone], the “reduction in egg hatching versus the controls” value amounted to 37% and the “state of hatched larvae in treated dishes” value was “all larvae in the treated dishes were dead”. For the setting “cohorts of ~100 eggs, four dishes, controls 13.5, FIG. 11”, the “average number of hatched larvae per Petri dish” value is reported as 8.5 larvae.

(Values after patent US11154057B2, “Use of nootkatone to treat mosquito infestations” (EVOLVA SA, priority 2016, dated 2021).)
